Entries after “also recorded” stand apart in the source; their conditions may differ.
Assays:
PP1M [1] = target: T1, PP1M (Gallus gallus, UniProt P62207); assay: Phosphorylase phosphatase activity of PP1M; type: biochemical, chicken
T1 construct: from tissue; host or cells: chicken gizzard smooth muscle
Experimental: (§1) (A) The phosphorylase phosphatase (PhP) activity of PP1M (closed circles) and its MLC20 phosphatase (MLCP) activity (open circles) were assayed after preincubation for 15 minutes at 30° C. with the indicated concentrations of GM-(G63-T93). Activities are shown relative to control incubations in which GM-(G63-T93) was omitted. Similar results were obtained in three experiments.
(§2) (A) PP1M from chicken gizzard smooth muscle (Alessi et al., 1992) was diluted and incubated for 15 min at 30° C. with the peptide […] (SEQ ID No 4), corresponding to the sequence in p53BP2 that contains the RVXF motif. Reactions were started with either ^32P-labelled MLC20 or glycogen phosphorylase and the MLC20 phosphatase (open circles) and phosphorylase phosphatase (PhP, closed circles) activities were determined. The results are expressed as a percentage of the activity determined in control incubations where the p53BP2 peptide was omitted (100%). Similar results were obtained in three separate experiments. (B) same as (A) except that the peptide was incubated with diluted hepatic glycogen particles containing PP1-GL before measuring the PhP activity. Similar results were obtained in three separate experiments.
(§3) The myosin-associated form of PP1 (PP1M) was from chicken gizzard and the glycogen-associated form of PP1 (PP1G) from rabbit skeletal muscle. […]

PP1GL [2] = assay: Phosphorylase phosphatase activity of PP1GL (hepatic glycogen particles); type: biochemical, rat
Experimental: Hepatic glycogen particles were diluted in assay buffer to 0.6 phosphorylase phosphatase (PhP) mU per ml, incubated for 15 minutes at 30° C. with GM-(G63-T93) (closed circles), GM-(G63-K80) (open circles) or GM-(G63-N75) (closed triangles) and assayed as described in Example 1. The open triangles show the effect of GM-(G63-N75) which had been phosphorylated at Ser67 by PKA (pGM-(G63-N75)). Similar results were obtained in four experiments.
(A) Hepatic glycogen protein particles containing PP1-GL were diluted and incubated for 15 min at 30° C. with the indicated concentrations of either M110[M1-F38] (open circles) or M110[M1-K35] (closed circles) and the phosphatase reactions were initiated by addition of ^32P-labelled glycogen phosphorylase. The results are expressed as a percentage of the activity determined in control incubations where the M110 peptides were omitted. Similar results were obtained in three separate experiments. (B) The experiment was carried out as in (A), except that the peptide GM[G63-N75] (“wild type”, WT) and variants in which either Val 66 (V66A) (closed triangles) or Phe 68 (F68A) (closed circles) were changed to Ala, were used instead of the M110 peptides. Similar results were obtained in three separate experiments.
(§4) The myosin-associated form of PP1 (PP1M) was from chicken gizzard and the glycogen-associated form of PP1 (PP1G) from rabbit skeletal muscle. The β isoform of PP1c was released from PP1G by incubation for 2 hours in 2M LiBr, then purified by gel-filtration on a 30×1 cm column of Superose 12 (Pharmacia, Milton Keynes, U.K.) in the presence of 0.5M LiBr. Glycogen protein particles from rat liver were used as the source of hepatic PP1G Digoxygenin-labelled PP1c (γ1-isoform, hereafter termed PP1) was prepared as in [9]. GL was expressed in E. coli as a glutathione-S-transferase (GST) fusion protein [7], termed GST-GL. The catalytic subunit of PP2A from bovine heart (PP2AC) was provided by Dr R. MacKintosh in this Unit. The phosphorylatable myosin light chain (MLC20) and heavy meromyosin from chicken gizzard were a gift from Dr M. Ikebe (Case Western Reserve University, Cleveland, USA). Thrombin and benzamidine-Agarose were purchased from Sigma (Poole, UK).
(§5) ^32P-labelled rabbit skeletal muscle phosphorylase a (containing 1.0 mol phosphate per mol subunit) was prepared by phosphorylation with phosphorylase kinase, ^32P-labelled rabbit skeletal muscle glycogen synthase (containing 1.5 mol/mol subunit in the sites 3 region) was prepared by phosphorylation with glycogen synthase kinase-3 [24]). ^32P-labelled chicken gizzard MLC20 and ^32P-labelled chicken gizzard heavy meromyosin (containing 1.0 mol phosphate per mol subunit) were prepared by phosphorylation with smooth muscle myosin light chain kinase. The dephosphorylation of phosphorylase a (10 μM), glycogen synthase (1 μM) and MLC20 (1 μM) and heavy meromyosin (1 μM) was carried out as in [24]. One unit of activity (U) was that amount which released […] of phosphate in one minute.
(§6) PP1c was isolated from the rabbit skeletal muscle PP1-GM complex as described previously (Johnson et al, 1996). Glycogen particles isolated from rat liver (Schelling el al, 1988) served as the source of PP1-GL. The dephosphorylation of glycogen phosphorylase (10 μM) and the isolated MLC20 of smooth muscle myosin (1 μM) by PP1c was carried out as described previously (Cohen et al., 1988; Alessi et al., 1992).

PP1M [3] = target: T1, PP1M; assay: MLC20 phosphatase activity of PP1M; type: biochemical, chicken
Experimental: as §1, §2, §3

cultured cells = assay: Effect of p53BP2 peptide introduced into cultured cells (cell cycle, apoptosis; WAF1 ELISA, Nuclear Matrix Protein ELISA); type: cell-based; settings: Example 5, present tense, no data
Source text: The function of p53BP2 is ascertained by examining the in vivo effect of peptides based on the sequence of the p53BP2 binding site to PP1. This may be done by reference to the consensus peptide sequence described in the previous Examples and by reference to the crystal structure in Example 2. The peptide is introduced into cultured cells using penetratin available from Appligene. Other importins may also be used. Alternatively cDNA specifying p53BP2 proteins mutant in the p53BP2 binding site to PP1 are transfected in cultured cells. The effect of these agents on the cell cycle and apoptosis are assessed by a number of methods, for example WAF1 ELISA and Nuclear Matrix Protein ELISA assays (Amersham).

PP1c [4] = target: T2, PP1c (Oryctolagus cuniculus, UniProt P62143); assay: Phosphorylase phosphatase activity of PP1c; type: biochemical, rabbit
T2 construct: from tissue; host or cells: rabbit skeletal muscle (PP1G dissociated with LiBr)
Experimental: (§7) A,B; Effects of M110-(M1-E309) (closed circles), M110-(M1-F38) (open circles) and M110-(D39-E309) (open triangles) on the MLC20 phosphatase […] and phosphorylase phosphatase (B) activities of PP1c were measured after incubating PP1c for 15 minutes at 30° C. with each fragment. The results are presented as a percentage of those obtained in experiments where the M110 fragments were omitted.
(§8) C,D; The effect of M110-(M1-A150) (open circles) and M110-(L24-Y496) (closed circles) on the MLC20 phosphatase (C) and phosphorylase phosphatase (D) activities of PP1c were measured as in A,B.
(B) The phosphorylase phosphatase activity of PP1c was assayed as in A in the presence or absence of 1 μM GM-(G63-T93) and 1.0 nM M110-(M1-E309). The results are presented (SEM for three experiments) as a percentage of the PP1c activity measured in the absence of GM-(63-T93), M110-(M1-F38) or M110-(M1-E309).
as §4, §5, §6

PP1M [5] = target: T1, PP1M; assay: Gel filtration of PP1M on Superose 12 with or without GM-(G63-T93); type: binding, chicken
Experimental: (B,C) PPIM was incubated for 15 minutes at 30° C. in the absence (B) and presence (C) of […] GM-(G63-T93), then passed through a 30×1 cm column of Superose 12 equilibrated at ambient temperature in 50 mM Tris/HCl pH 7.5, 0.2M NaCl, 0.1 mM EGTA, 0.1% (by vol) 2-mercaptoethanol, 0.03% (by mass) Brij 35 in the absence (B) or presence (C) of 1 μM GM-(G63-T93). Fractions (0.25 ml) were assayed for MLC20 phosphatase (MLCP) in B and for phosphorylase phosphatase (PhP) activity in C. The arrows denote the position of ferritin (450 kDa) and ovalbumin (43 kDa).

PP1GL [6] = assay: Glycogen synthase phosphatase activity of PP1GL; type: biochemical, rat
Experimental: as §4, with “UK). […]” for “UK).”

PP1c [7] = target: T2, PP1c; assay: MLC20 (myosin P-light chain) phosphatase activity of PP1c; type: biochemical
Experimental: as §7, §8
(A) The MLC20 phosphatase activity of PP1c was assayed after incubation for 15 minutes at 30° C. in the presence or absence of 1 μM GM-(G63-T93) and either 0.1 μM M110-(M1-F38) or 0.1 nM M110-(M1-E309).
(1-38, open circles) or M110[M1-K35] (1-35, closed circles) were incubated with PP1c for 15 min at 30° C. and reactions started with the ^32P-labelled MLC20 substrate. The results are expressed as a % of the activity determined in control incubations where the M110 peptides were omitted (100%). Similar results were obtained in three separate experiments.
as §4, §5, §6
^32P-labelled myosin P-light chains containing 1.0 mol phosphate per mol subunit was prepared by phosphorylation with smooth muscle myosin light chain kinase. The dephosphorylation of myosin P-light chain (1 μM) was carried out as in [4] and one unit of activity (U) was that amount which catalysed the release of 1 μmole of phosphate in one min. When assaying PP1M in immunoprecipitates from the myofibrillar extracts, the tubes were shaken continuously and 3 nM okadaic acid was included to inhibit any PP2A present.

T2 sequence (P62143 whole entry): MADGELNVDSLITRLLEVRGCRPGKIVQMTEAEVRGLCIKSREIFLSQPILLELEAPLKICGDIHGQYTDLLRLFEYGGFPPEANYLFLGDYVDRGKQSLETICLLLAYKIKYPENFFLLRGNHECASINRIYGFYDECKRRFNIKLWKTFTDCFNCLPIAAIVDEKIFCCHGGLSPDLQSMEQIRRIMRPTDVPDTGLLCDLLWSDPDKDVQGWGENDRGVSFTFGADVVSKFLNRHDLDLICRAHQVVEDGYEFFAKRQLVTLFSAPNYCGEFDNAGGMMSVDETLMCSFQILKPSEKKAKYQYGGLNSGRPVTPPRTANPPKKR
T1 sequence (P62207 whole entry): as the sequence (P62143 whole entry) above

| Sequence | effect on the phosphorylase phosphatase activity of PP1M (PP1M [1]) | effect on the phosphorylase phosphatase activity of PP1GL (PP1GL [2]; hepatic glycogen particles containing PP1-GL) | effect on the MLC20 phosphatase activity of PP1M (PP1M [3]) | effect of the peptide in cultured cells (cultured cells) | prevention of suppression of the phosphorylase phosphatase activity of PP1c by a regulatory subunit or fragment (PP1c [4]) | maximal stimulation of the phosphorylase phosphatase activity of PP1c (PP1c [4]; SEM for three experiments) | increase in the phosphorylase phosphatase activity of PP1M (PP1M [1]; 10 μM peptide) | dissociation of PP1M in gel-filtration experiments (PP1M [5]) | effect on the glycogen synthase phosphatase activity of PP1GL (PP1GL [6]) | displacement of GL from PP1c (PP1GL [2]) | increase in the phosphorylase phosphatase activity of PP1GL (PP1GL [2]; hepatic glycogen particles, 15 min 30° C.) | EC50 (PP1GL [2]; hepatic glycogen particles, 15 min 30° C., read-out: concentration required for 50% activation of the phosphorylase phosphatase activity of PP1GL) [nM] | suppression of the MLC20 phosphatase activity of PP1M (PP1M [3]; 10 μM peptide) | prevention of stimulation of the MLC20 phosphatase activity of PP1c by M110 fragments (PP1c [7]) |
| --- | --- | --- | --- | --- | --- | --- | --- | --- | --- | --- | --- | --- | --- | --- |
| GKRTNLRKTGSERIAHGMRVKFNPLALLLDSC [32 residue peptide from p53BP2] | increase in the rate of dephosphorylation of glycogen phosphorylase | increase in the rate of dephosphorylation of glycogen phosphorylase | decrease in the rate of dephosphorylation of the MLC20 subunit of smooth muscle myosin | modulate the interaction between PP1 and p53BP2 in vivo and affect cell regulation and apoptosis |  |  |  |  |  |  |  |  |  |  |
| GRRVSFADNFGFNLVSVKEFDTWELPSVSTT [GM-(G63-T93), synthetic peptide, residues 63-93 of rabbit GM] |  |  |  |  | prevented bacterially expressed GST-GL from suppressing the phosphorylase phosphatase activity of PP1c; also recorded: prevented M110-(M1-E309) from suppressing the phosphorylase phosphatase activity of PP1c | 37+1.4% | about 7 fold | displaced the M110 subunit from PP1M | no effect | does not displace GL from PP1c | sixfold | 30 | 60-65% | prevented M110-(M1-F38) or M110-(M1-E309) from stimulating the MLC20 phosphatase activity of PP1c |

Source: patent US6884600B1, “Protein phosphatase-1 catalytic subunit interactions” (Medical Research Council London, priority 1996, dated 2005)
